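These data come from cells grown in 96-well plates and exposed to compound for 48 hours at five concentrations. Definition used: TGI = concentration required for complete inhibition of growth.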
Experiments:
Experiment in all cases: growth of human tumour cells (NCI), 48 h
T-47D breast = system: T-47D breast
HCT-15 colon = system: HCT-15 colon
ACHN renal = system: ACHN renal
MDA-N = system: MDA-N
MDA-MB-435 = system: MDA-MB-435
786-0 renal = system: 786-0 renal
PC-3 prostate = system: PC-3 prostate
SN12C renal = system: SN12C renal
SK-OV-3 ovarian = system: SK-OV-3 ovarian
RPMI-8226 leukemia = system: RPMI-8226 leukemia
RXF 393 renal = system: RXF 393 renal
OVCAR-5 ovarian = system: OVCAR-5 ovarian
COLO 205 colon = system: COLO 205 colon
SNB-75 CNS = system: SNB-75 CNS
HCT-116 colon = system: HCT-116 colon
NCI/ADR-RES ovarian = system: NCI/ADR-RES ovarian
OVCAR-3 ovarian = system: OVCAR-3 ovarian
NCI-H23 lung = system: NCI-H23 lung
HOP-62 NSCLC = system: HOP-62 NSCLC
CCRF-CEM leukemia = system: CCRF-CEM leukemia
SK-MEL-2 melanoma = system: SK-MEL-2 melanoma
M14 melanoma = system: M14 melanoma
BT-549 breast = system: BT-549 breast
MCF7 breast = system: MCF7 breast
MOLT-4 leukemia = system: MOLT-4 leukemia
UO-31 renal = system: UO-31 renal
SF-539 CNS = system: SF-539 CNS
UACC-257 melanoma = system: UACC-257 melanoma
HCC-2998 colon = system: HCC-2998 colon
HOP-92 NSCLC = system: HOP-92 NSCLC
OVCAR-8 ovarian = system: OVCAR-8 ovarian
IGROV1 ovarian = system: IGROV1 ovarian
SK-MEL-5 melanoma = system: SK-MEL-5 melanoma
SNB-19 CNS = system: SNB-19 CNS
U251 CNS = system: U251 CNS
DU-145 prostate = system: DU-145 prostate
SK-MEL-28 melanoma = system: SK-MEL-28 melanoma
LOX IMVI melanoma = system: LOX IMVI melanoma
OVCAR-4 ovarian = system: OVCAR-4 ovarian
K-562 leukemia = system: K-562 leukemia
NCI-H460 lung = system: NCI-H460 lung
UACC-62 melanoma = system: UACC-62 melanoma
HL-60(TB) leukemia = system: HL-60(TB) leukemia
SW-620 colon = system: SW-620 colon
HT29 colon = system: HT29 colon
NCI-H522 lung = system: NCI-H522 lung
KM12 colon = system: KM12 colon
TK-10 renal = system: TK-10 renal
A498 renal = system: A498 renal
SF-295 CNS = system: SF-295 CNS
SF-268 CNS = system: SF-268 CNS
MALME-3M melanoma = system: MALME-3M melanoma
CAKI-1 renal = system: CAKI-1 renal
HS 578T breast = system: HS 578T breast
SR leukemia = system: SR leukemia
EKVX NSCLC = system: EKVX NSCLC
MDA-MB-231 breast = system: MDA-MB-231 breast
A549 NSCLC = system: A549 NSCLC
NCI-H226 lung = system: NCI-H226 lung

CCOC(=O)C(=CNc1ccc(NC2=NCC(C)S2)cc1)C(=O)OCC (centres undefined) was tested, and the TGI (T-47D breast) was greater than 84.5 µM, the TGI (HCT-15 colon) was greater than 100 µM and the TGI (ACHN renal) was greater than 100 µM. It also gave a TGI (MDA-N) greater than 100 µM, a TGI (MDA-MB-435) of 60.2 µM and a TGI (786-0 renal) of 84.6 µM. The TGI (PC-3 prostate) was 62.9 µM, the TGI (SN12C renal) was greater than 100 µM and the TGI (SK-OV-3 ovarian) was greater than 100 µM. For the same compound, the TGI (RPMI-8226 leukemia) was 32.3 µM, the TGI (RXF 393 renal) was 97.1 µM and the TGI (OVCAR-5 ovarian) was greater than 100 µM. For the same compound, the TGI (COLO 205 colon) was greater than 100 µM, the TGI (SNB-75 CNS) was greater than 74.1 µM and the TGI (HCT-116 colon) was greater than 100 µM. For the same compound, the TGI (NCI/ADR-RES ovarian) was 95.1 µM, the TGI (OVCAR-3 ovarian) was 60.1 µM and the TGI (NCI-H23 lung) was greater than 100 µM. The TGI (HOP-62 NSCLC) was greater than 100 µM, the TGI (CCRF-CEM leukemia) was 1.84 µM and the TGI (SK-MEL-2 melanoma) was 50.7 µM. For the same compound, the TGI (M14 melanoma) was greater than 90.7 µM, the TGI (BT-549 breast) was 48.9 µM and the TGI (MCF7 breast) was greater than 100 µM. It also gave a TGI (MOLT-4 leukemia) of 30 µM, a TGI (UO-31 renal) of 73 µM and a TGI (SF-539 CNS) greater than 100 µM. It also gave a TGI (UACC-257 melanoma) greater than 100 µM, a TGI (HCC-2998 colon) greater than 100 µM and a TGI (HOP-92 NSCLC) greater than 86.7 µM. For the same compound, the TGI (OVCAR-8 ovarian) was greater than 100 µM, the TGI (IGROV1 ovarian) was greater than 100 µM and the TGI (SK-MEL-5 melanoma) was 34.5 µM. The TGI (SNB-19 CNS) was greater than 100 µM, the TGI (U251 CNS) was greater than 100 µM and the TGI (DU-145 prostate) was greater than 100 µM. The TGI (SK-MEL-28 melanoma) was greater than 100 µM, the TGI (LOX IMVI melanoma) was greater than 85.4 µM and the TGI (OVCAR-4 ovarian) was greater than 51.8 µM. For the same compound, the TGI (K-562 leukemia) was 4.69 µM, the TGI (NCI-H460 lung) was greater than 100 µM and the TGI (UACC-62 melanoma) was 26.8 µM. It also gave a TGI (HL-60(TB) leukemia) of 16.4 µM, a TGI (SW-620 colon) greater than 100 µM and a TGI (HT29 colon) greater than 84.2 µM. For the same compound, the TGI (NCI-H522 lung) was 36.8 µM, the TGI (KM12 colon) was greater than 87.9 µM and the TGI (TK-10 renal) was greater than 100 µM. The TGI (A498 renal) was greater than 100 µM, the TGI (SF-295 CNS) was greater than 100 µM and the TGI (SF-268 CNS) was greater than 100 µM. It also gave a TGI (MALME-3M melanoma) of 96.2 µM, a TGI (CAKI-1 renal) greater than 100 µM and a TGI (HS 578T breast) of 74.8 µM. It also gave a TGI (SR leukemia) greater than 69.8 µM, a TGI (EKVX NSCLC) greater than 100 µM and a TGI (MDA-MB-231 breast) greater than 100 µM. It also gave a TGI (A549 NSCLC) greater than 100 µM and a TGI (NCI-H226 lung) greater than 100 µM.
O=C1CSC2(CC(/C=C/c3cccc([N+](=O)[O-])c3)=NN2c2cccc(S(=O)(=O)O)c2)N1c1nc2ccccc2s1 (centres undefined) showed a TGI (T-47D breast) of 73.8 µM, a TGI (HCT-15 colon) of 44.5 µM and a TGI (ACHN renal) of 94.6 µM. It also gave a TGI (MDA-N) of 59.1 µM, a TGI (MDA-MB-435) of 34.9 µM and a TGI (786-0 renal) of 31.8 µM. For the same compound, the TGI (PC-3 prostate) was 51 µM, the TGI (SN12C renal) was 49.9 µM and the TGI (RPMI-8226 leukemia) was 39.2 µM. It also gave a TGI (RXF 393 renal) greater than 100 µM, a TGI (OVCAR-5 ovarian) of 52.1 µM and a TGI (COLO 205 colon) greater than 100 µM. The TGI (SNB-75 CNS) was 40.7 µM, the TGI (HCT-116 colon) was greater than 100 µM and the TGI (NCI/ADR-RES ovarian) was 70.1 µM. For the same compound, the TGI (NCI-H23 lung) was 43.4 µM, the TGI (CCRF-CEM leukemia) was 48.3 µM and the TGI (SK-MEL-2 melanoma) was 47.9 µM. It also gave a TGI (M14 melanoma) of 92.6 µM, a TGI (BT-549 breast) of 32.7 µM and a TGI (MCF7 breast) of 37.2 µM. The TGI (MOLT-4 leukemia) was 64.9 µM, the TGI (UO-31 renal) was 34.3 µM and the TGI (SF-539 CNS) was greater than 100 µM. It also gave a TGI (UACC-257 melanoma) greater than 100 µM, a TGI (HCC-2998 colon) greater than 100 µM and a TGI (HOP-92 NSCLC) of 40.3 µM. It also gave a TGI (OVCAR-8 ovarian) of 30.7 µM, a TGI (IGROV1 ovarian) of 36.8 µM and a TGI (SK-MEL-5 melanoma) greater than 100 µM. It also gave a TGI (SNB-19 CNS) of 43.6 µM, a TGI (U251 CNS) of 36.3 µM and a TGI (DU-145 prostate) of 40.6 µM. It also gave a TGI (SK-MEL-28 melanoma) greater than 100 µM, a TGI (LOX IMVI melanoma) of 29.1 µM and a TGI (OVCAR-4 ovarian) of 72.1 µM. For the same compound, the TGI (K-562 leukemia) was greater than 100 µM, the TGI (NCI-H460 lung) was 63.2 µM and the TGI (UACC-62 melanoma) was 45.5 µM. It also gave a TGI (HL-60(TB) leukemia) of 92.5 µM, a TGI (SW-620 colon) of 76.4 µM and a TGI (HT29 colon) greater than 100 µM. For the same compound, the TGI (NCI-H522 lung) was 34.1 µM, the TGI (KM12 colon) was 42.2 µM and the TGI (TK-10 renal) was 39.8 µM. The TGI (A498 renal) was 52.5 µM, the TGI (SF-268 CNS) was greater than 100 µM and the TGI (MALME-3M melanoma) was greater than 100 µM. The TGI (CAKI-1 renal) was greater than 100 µM, the TGI (HS 578T breast) was greater than 100 µM and the TGI (SR leukemia) was 48.3 µM. For the same compound, the TGI (EKVX NSCLC) was greater than 100 µM, the TGI (MDA-MB-231 breast) was 43.5 µM and the TGI (A549 NSCLC) was 69.2 µM. It also gave a TGI (NCI-H226 lung) of 77.5 µM.

From PubChem BioAssay (NCI)
